# According to patent US20090274622A1, “NECROSIS AVID TRACER AGENT” (K.U. Leuven Research & Development, priority 2003, published 2009):
# Legend:
# [1] = tested on: HDL and LDL; conditions: reference 37; cited from earlier work
# [2] = tested on: occlusive myocardial infarction; assay: In vivo SPECT imaging of rabbit with myocardial infarction; conditions: 24 and 48 hours post injection
# Method: All animal experiments were conducted with the approval of the institutional ethical committee. • 1. […] Occlusive myocardial infarction: A New-Zealand adult rabbit weighing about 5 kg was sedated with intramuscular injection of a mixed solution of Ketalar (ketamine hydrochloride, Pfizer, Brussels, Belgium) at 15 mg/kg and Rompun (xylazine hydrochloride, Bayer, Leverkusen, Germany) at 2.5 mg/kg. The animal was then anaesthetized with an intravenous bolus injection of Nembutal at 15 mg/kg followed by IV infusion of Nembutal at 0.1 mg/kg/min through an ear vein. Under a cold-light laryngoscope with No. 1 pediatric blade (Riester®, Jungingen, Germany), the animal was intubated with a 3.5-mm endotracheal tube, which was then connected to an artificial ventilator (Mark 7 respirator, Bird Corporation, Palm Springs, Calif.). An open chest surgery of left posterolateral thoracotomy was performed. The pericardium was opened to expose the left circumflex coronary artery (LCX). A loose snare loop of a 3-0 silk suture was applied around the artery and tightened with ligature. The chest was closed after evacuation of the pneumothorax.
# Two hours after reperfusion of the myocardial infarction, the rabbit was intravenously injected with 130 MBq MIH via an ear vein.
# The rabbit imaging measurements were performed using a two-detector gamma camera (E-cam, Siemens Medical Systems, ErIangen, Germany). […]
# [3] = tested on: occlusive myocardial infarction; assay: Tissue radioactivity counting of normal and infarcted rabbit myocardium; conditions: gamma counting, 48 h
# [4] = tested on: occlusive myocardial infarction; assay: Ex vivo autoradiography of rabbit heart slices
# [5] = tested on: reperfused hepatic infarction; assay: Biodistribution of MIH in rats with reperfused hepatic infarction (tissue radioactivity counting); conditions: for Biodistribution, Blood / Biodistribution, Heart / Biodistribution, Kidneys / Biodistribution, Large intestine / Biodistribution, Lungs / Biodistribution, Muscle / Biodistribution, Necrotic liver / Biodistribution, Normal liver / Biodistribution, Small intestine / Biodistribution, Spleen / Biodistribution, Stomach / Biodistribution, Thyroid / Necrotic liver/Blood ratio / Necrotic liver/Intact liver ratio / Necrotic liver/Muscle ratio: i.v., mean ± SD, n = 3
# [6] = tested on: reperfused hepatic infarction; assay: Ex vivo autoradiography of rat liver slices with TTC and H&E staining
# [7] = quantification of autoradiography image
structure (smiles),measurement,setting,value
"Cc1cc(O)c2c(=O)c3c(O)cc(O)c4c5c(O)cc(O)c6c(=O)c7c(O)cc(C)c8c1c2c(c34)c(c78)c65 [hypericine, hypericin, reference compound]",binding to HDL and LDL in vivo,[1],bind extensively to HDL and LDL
"Cc1cc(O)c2c(=O)c3c(O)cc(O)c4c5c(O)c([123I])c(O)c6c(=O)c7c(O)cc(C)c8c1c2c(c34)c(c78)c65 [MIH, mono-[^123I]iodohypericin]","whole body SPECT, coronal section",[2],only one hot spot in the anatomical area of the heart
same,radiotracer concentration in infarcted tissue vs healthy myocardium,[3],7 fold
same,uptake in the infarcted region of myocardium,[3],0.36 % of ID/g
same,uptake in the normal region of myocardium,[3],0.05 % of ID/g
same,autoradiography distribution of radioactive uptake in heart slice,[4],radioactive uptake appears only in the infarcted region
same,uptake ratio infarcted tissue limited to subendocardial area vs. control tissue,[4]; [7],16
same,uptake ratio overall infarcted myocardium vs. intact myocardium,[4]; [7],about 6
same,binding to HDL and LDL in vivo,[1],bind extensively to HDL and LDL
same,concentration ratio necrotic liver vs. blood,[5]; 24 hours p.i.,17
same,concentration ratio necrotic liver vs. muscle,[5]; 24 hours p.i.,57
same,concentration in necrotic liver tissue relative to intact liver tissue,[5]; 24 h p.i.,3.2 times
same,in vivo deiodination (thyroid concentration),[5]; 24 h p.i.,in vivo deiodination of MIH occurs
same,"Biodistribution, Blood",[5]; 30 min p.i.,1.34 ± 0.38 % of injected dose per gram tissue
same,"Biodistribution, Heart",[5]; 30 min p.i.,0.47 ± 0.13 % of injected dose per gram tissue
same,"Biodistribution, Kidneys",[5]; 30 min p.i.,0.35 ± 0.05 % of injected dose per gram tissue
same,"Biodistribution, Large intestine",[5]; 30 min p.i.,0.03 ± 0.01 % of injected dose per gram tissue
same,"Biodistribution, Lungs",[5]; 30 min p.i.,1.60 ± 0.58 % of injected dose per gram tissue
same,"Biodistribution, Muscle",[5]; 30 min p.i.,0.03 ± 0.01 % of injected dose per gram tissue
same,"Biodistribution, Necrotic liver",[5]; 30 min p.i.,1.91 ± 0.46 % of injected dose per gram tissue
same,"Biodistribution, Normal liver",[5]; 30 min p.i.,3.80 ± 1.39 % of injected dose per gram tissue
same,"Biodistribution, Small intestine",[5]; 30 min p.i.,0.09 ± 0.03 % of injected dose per gram tissue
same,"Biodistribution, Spleen",[5]; 30 min p.i.,2.19 ± 0.18 % of injected dose per gram tissue
same,"Biodistribution, Stomach",[5]; 30 min p.i.,0.03 ± 0.00 % of injected dose per gram tissue
same,"Biodistribution, Thyroid",[5]; 30 min p.i.,0.16 ± 0.02 % of injected dose per gram tissue
same,Necrotic liver/Blood ratio,[5]; 30 min p.i.,1.44 ± 0.10
same,Necrotic liver/Intact liver ratio,[5]; 30 min p.i.,0.57 ± 0.28
same,Necrotic liver/Muscle ratio,[5]; 30 min p.i.,75.80 ± 16.34
same,"Biodistribution, Blood",[5]; 24 h p.i.,0.10 ± 0.01 % of injected dose per gram tissue
same,"Biodistribution, Heart",[5]; 24 h p.i.,0.24 ± 0.08 % of injected dose per gram tissue
same,"Biodistribution, Kidneys",[5]; 24 h p.i.,0.18 ± 0.02 % of injected dose per gram tissue
same,"Biodistribution, Large intestine",[5]; 24 h p.i.,1.47 ± 0.13 % of injected dose per gram tissue
same,"Biodistribution, Lungs",[5]; 24 h p.i.,1.06 ± 0.30 % of injected dose per gram tissue
same,"Biodistribution, Muscle",[5]; 24 h p.i.,0.03 ± 0.00 % of injected dose per gram tissue
same,"Biodistribution, Necrotic liver",[5]; 24 h p.i.,1.71 ± 0.32 % of injected dose per gram tissue
same,"Biodistribution, Normal liver",[5]; 24 h p.i.,0.55 ± 0.15 % of injected dose per gram tissue
same,"Biodistribution, Small intestine",[5]; 24 h p.i.,0.27 ± 0.02 % of injected dose per gram tissue
same,"Biodistribution, Spleen",[5]; 24 h p.i.,0.43 ± 0.07 % of injected dose per gram tissue
same,"Biodistribution, Stomach",[5]; 24 h p.i.,0.37 ± 0.13 % of injected dose per gram tissue
same,"Biodistribution, Thyroid",[5]; 24 h p.i.,9.25 ± 3.25 % of injected dose per gram tissue
same,Necrotic liver/Blood ratio,[5]; 24 h p.i.,17.40 ± 1.19
same,Necrotic liver/Intact liver ratio,[5]; 24 h p.i.,3.18 ± 0.49
same,Necrotic liver/Muscle ratio,[5]; 24 h p.i.,57.09 ± 4.24
same,autoradiography uptake in intact liver,[6]; 30 min p.i.,Pronounced radioactivity uptake
same,autoradiography uptake in necrotic regions of infarcted liver lobe,[6]; 30 min p.i.,low uptake of MIH
same,autoradiography uptake in intact liver,[6]; 24 h p.i.,activity from the intact liver has cleared
same,autoradiography uptake in necrotic regions of infarcted liver tissue,[6]; 24 h p.i.,relatively high uptake of MIH
